Columns and labels:
[1] = tested on: Eleusine indica; assay: Experiment 2: glasshouse experiment, seedlings at 4-leaf stage, percentage phytotoxicity after 19 days; assay type: in vivo
Description: Agricultural surfactant - nonylphenol ethylene oxide condensate containing 9 moles ethylene oxide (in a commercial composition) was added to all spray dilutions to give 0.2% v/v concentration. […] The ED50 values were as follows:- The results were then used to plot an isobole with a "two-sided effect" according to the methods of […] op. cit. The isobole produced, shown hereinafter in Figure 1 was clearly a type III curve ([…]., page 75), characteristic of synergism.

[2] = tested on: Digitaria sanguinalis; assay: Experiment 3: glasshouse, post-emergence, fresh weight after 19 days, % inhibition of growth; assay type: in vivo; settings: 3 leaves
Description: (§1) A series of experiments was carried out to determine the nature of the biological interaction between atrazine and five compounds of general formula I on a range of weed species. […] The growth stages of the plants at spraying are also presented with the results. Agricultural surfactant (nonyl phenol ethylene oxide condensate containing 9 moles ethylene oxide marketed as 'Agral') was added to all spray dilutions to give 0.2% v/v concentration. […] After 19 days the fresh weight of vegetation in each pot was determined. […] E = […]00003:character} where E, X and Y are percentage inhibition of growth. In addition, the ED50 or ED90 values (the application rates giving 50% or 90% inhibition of growth, respectively) were calculated from the results for the piperidinedione alone and with increasing rates of atrazine.

[3] = tested on: Bidens pilosa; assay: as above; assay type: in vivo; settings: 2 leaves
Description: as §1

[4] = tested on: Eleusine indica; assay: as above; assay type: in vivo; settings: 3 leaves
Description: as §1

[5] = tested on: Xanthium strumarium; assay: as above; assay type: in vivo; settings: 2 leaves
Description: as §1

[6] = tested on: Solanum nigrum; assay: as above; assay type: in vivo; settings: for ED₉₀: Atrazine alone; for inhibition at 8 g/ha / inhibition at 16 g/ha / inhibition at 31 g/ha / inhibition at 63 g/ha / inhibition at 125 g/ha: Solanum nigrum, post-emergence; for inhibition at 8 g/ha: Atrazine 8 g/ha alone; for inhibition at 16 g/ha: Atrazine 16 g/ha alone; for inhibition at 31 g/ha: Atrazine 31 g/ha alone; for inhibition at 63 g/ha: Atrazine 63 g/ha alone; for inhibition at 125 g/ha: Atrazine 125 g/ha alone
Description: as §1

[7] = tested on: Brassica kaber; assay: as above; assay type: in vivo; settings: for ED₅₀ / ED₉₀: Atrazine alone; for inhibition at 8 g/ha / inhibition at 16 g/ha / inhibition at 31 g/ha / inhibition at 63 g/ha / inhibition at 125 g/ha: Mutarda arvensis, post-emergence; for inhibition at 8 g/ha: Atrazine 8 g/ha alone; for inhibition at 16 g/ha: Atrazine 16 g/ha alone; for inhibition at 31 g/ha: Atrazine 31 g/ha alone; for inhibition at 63 g/ha: Atrazine 63 g/ha alone; for inhibition at 125 g/ha: Atrazine 125 g/ha alone
Description: as §1

[8] = tested on: Amaranthus retroflexus; assay: as above; assay type: in vivo; settings: for inhibition at 8 g/ha / inhibition at 16 g/ha / inhibition at 31 g/ha / inhibition at 63 g/ha / inhibition at 125 g/ha: Amaranthus retroflexus, post-emergence; for inhibition at 8 g/ha: Atrazine 8 g/ha alone; for inhibition at 16 g/ha: Atrazine 16 g/ha alone; for inhibition at 31 g/ha: Atrazine 31 g/ha alone; for inhibition at 63 g/ha: Atrazine 63 g/ha alone; for inhibition at 125 g/ha: Atrazine 125 g/ha alone; for ED₉₀: Atrazine alone
Description: as §1

[9] = tested on: Sesbania exactata; assay: as above; assay type: in vivo; settings: 2 leaves
Description: as §1

[10] = tested on: maize var.Irla; assay: Experiment 5: glasshouse, crop plants at 3 leaf stage, percentage phytotoxicity after 12 days; settings: for % crop phytotoxicity Maize (3 leaves): Compound 74 0 g/ha
Description: An experiment was carried out to determine the biological interaction between atrazine and Compound 74 on maize. A wide range of dose rates of atrazine i.e. 250, 500, 1000 and 2000 g/ha (in a commercial suspension concentrate formulation containing 500g/l w/v atrazine) and of Compound 74 i.e. 31, 63, 125, 250, 1000 and 2000 g/ha (in a composition according to Example 2 as described hereinafter) were applied in a spray volume of 290litres/ha to four replicate 10cm square plastic plant pots of loam soil containing one maize plant, at the 3 leaf growth stage. Agricultural surfactant ('Agral') was added to the spray dilutions to give 0.2%v/v concentration.
After spraying the pots were arranged in randomised blocks in a glasshouse and watered as necessary. After 12 days the plants were assessed for percentage phytotoxicity (reduction in green area compared with unsprayed plants) (0 = no effect 100 = complete destruction).
E = X + Y […] where E, X and Y are percentage phytotoxicity.
The ED values were then used to plot an isobole according to the method of P.M.L. Tammes op cit. The results of percentage phytotoxicity, the ED₂₀ values calculated from them and the calculated expected value are given in Table 9.

[11] = tested on: Brachiaria plantaginea (BRAPL); assay: Experiment 1: field experiment, post-emergence spray, % control 29 days after application; assay type: in vivo; settings: Atrazine 1500g/ha
Description: (§2) Duplicate 12m² plots were sprayed post-emergence with 250g or 500g/ha Compound 1 (in a composition according to Example 1 as described hereinafter) or 1500g/ha atrazine (in a commercial aqueous suspension concentrate formulation containing 500g/l w/v atrazine or a combination (as a tank mix) of the two herbicides in a volume of 300 litres/ha. The following control figures were recorded on the grass weeds Brachiaria plantaginea (BRAPL), Digitaria horizontalis (DIGHO) and Eleusine indica (ELEIN) 29 days after application.

[12] = tested on: Eleusine indica (ELEIN); assay: as above; assay type: in vivo; settings: Atrazine 1500g/ha
Description: as §2

`CCNc1nc(Cl)nc(NC(C)C)n1` [Atrazine, 2-chloro-4-ethylamino-6-isopropylamino-1,3,5-triazine] showed a percentage phytotoxicity ([1]; Atrazine 125 g/ha alone) of 2%, a percentage phytotoxicity ([1]; Atrazine 250 g/ha alone) of 13% and a percentage phytotoxicity ([1]; Atrazine 500 g/ha alone) of 17%. For the same compound, the percentage phytotoxicity ([1]; Atrazine 1000 g/ha alone) was 43%, the ED₅₀ ([1]; Atrazine alone, 50% phytotoxicity) was 1193 g/ha and the ED₉₀ ([2]; Atrazine alone) was “ED₉₀ (g/ha) ∞”. It also gave an inhibition at 125 g/ha ([2]; Digitaria sanguinalis, post-emergence, Atrazine 125 g/ha alone) of 25%, an inhibition at 500 g/ha ([2]; Digitaria sanguinalis, post-emergence, Atrazine 500 g/ha alone) of 24% and an inhibition at 1000 g/ha ([2]; Digitaria sanguinalis, post-emergence, Atrazine 1000 g/ha alone) of 32%. The ED₅₀ ([3]; Atrazine alone) was “ED₅₀(g/ha)63.17”, the inhibition at 8 g/ha ([3]; Bidens pilosa, post-emergence, Atrazine 8 g/ha alone) was 0% and the inhibition at 16 g/ha ([3]; Bidens pilosa, post-emergence, Atrazine 16 g/ha alone) was 0%. It also gave an inhibition at 31 g/ha ([3]; Bidens pilosa, post-emergence, Atrazine 31 g/ha alone) of 5%, an inhibition at 63 g/ha ([3]; Bidens pilosa, post-emergence, Atrazine 63 g/ha alone) of 46% and an inhibition at 125 g/ha ([3]; Bidens pilosa, post-emergence, Atrazine 125 g/ha alone) of 92%. The ED₅₀ ([4]; Atrazine alone) was “ED₅₀ (g/ha)664.61”, the inhibition at 125 g/ha ([4]; Eleusine indica, post-emergence, Atrazine 125 g/ha alone) was 4% and the inhibition at 500 g/ha ([4]; Eleusine indica, post-emergence, Atrazine 500 g/ha alone) was 36%. The inhibition at 1000 g/ha ([4]; Eleusine indica, post-emergence, Atrazine 1000 g/ha alone) was 66%, the ED₉₀ ([5]; Atrazine alone) was “ED₉₀(g/ha) 138.01” and the inhibition at 8 g/ha ([5]; Xanthium strumarium, post-emergence, Atrazine 8 g/ha alone) was 25%. The inhibition at 16 g/ha ([5]; Xanthium strumarium, post-emergence, Atrazine 16 g/ha alone) was 21%, the inhibition at 31 g/ha ([5]; Xanthium strumarium, post-emergence, Atrazine 31 g/ha alone) was 72% and the inhibition at 63 g/ha ([5]; Xanthium strumarium, post-emergence, Atrazine 63 g/ha alone) was 59%. The inhibition at 125 g/ha ([5]; Xanthium strumarium, post-emergence, Atrazine 125 g/ha alone) was 84%, the ED₉₀ ([6]; 1-2 leaves, Table 4) was “ED₉₀(g/ha) 121.27” and the ED₉₀ ([6]; 1 leaf, Table 6) was “ED₉₀(g/ha) 59.35”. For the same compound, the ED₉₀ ([6]; 2 leaves, Table 7) was “ED₉₀(g/ha) 72.94”, the inhibition at 8 g/ha ([6]; 1-2 leaves, Table 4) was 9% and the inhibition at 8 g/ha ([6]; 1 leaf, Table 6) was 19%. It also gave an inhibition at 8 g/ha ([6]; 2 leaves, Table 7) of 6%, an inhibition at 16 g/ha ([6]; 1-2 leaves, Table 4) of 47% and an inhibition at 16 g/ha ([6]; 1 leaf, Table 6) of 45%. The inhibition at 16 g/ha ([6]; 2 leaves, Table 7) was 27%, the inhibition at 31 g/ha ([6]; 1-2 leaves, Table 4) was 47% and the inhibition at 31 g/ha ([6]; 1 leaf, Table 6) was 73%. For the same compound, the inhibition at 31 g/ha ([6]; 2 leaves, Table 7) was 35%, the inhibition at 63 g/ha ([6]; 1-2 leaves, Table 4) was 67% and the inhibition at 63 g/ha ([6]; 1 leaf, Table 6) was 94%. For the same compound, the inhibition at 63 g/ha ([6]; 2 leaves, Table 7) was 76%, the inhibition at 125 g/ha ([6]; 1-2 leaves, Table 4) was 90% and the inhibition at 125 g/ha ([6]; 1 leaf, Table 6) was 97%. For the same compound, the inhibition at 125 g/ha ([6]; 2 leaves, Table 7) was 99%, the ED₅₀ ([7]; 2-3 leaves, Table 4) was “ED₅₀(g/ha) 88.39” and the ED₉₀ ([7]; 2 leaves, Table 5) was “ED₉₀(g/ha) 77”. For the same compound, the ED₉₀ ([7]; 2 leaves, Table 6) was “ED₉₀(g/ha) 62.14”, the ED₅₀ ([7]; 2 leaves, Table 7) was “ED₅₀(g/ha) 78.24” and the inhibition at 8 g/ha ([7]; 2-3 leaves, Table 4) was 16%. The inhibition at 8 g/ha ([7]; 2 leaves, Table 5) was 0%, the inhibition at 8 g/ha ([7]; 2 leaves, Table 6) was 0% and the inhibition at 8 g/ha ([7]; 2 leaves, Table 7) was 0%. It also gave an inhibition at 16 g/ha ([7]; 2-3 leaves, Table 4) of 5%, an inhibition at 16 g/ha ([7]; 2 leaves, Table 5) of 21% and an inhibition at 16 g/ha ([7]; 2 leaves, Table 6) of 35%. The inhibition at 16 g/ha ([7]; 2 leaves, Table 7) was 0%, the inhibition at 31 g/ha ([7]; 2-3 leaves, Table 4) was 19% and the inhibition at 31 g/ha ([7]; 2 leaves, Table 5) was 42%. The inhibition at 31 g/ha ([7]; 2 leaves, Table 6) was 41%, the inhibition at 31 g/ha ([7]; 2 leaves, Table 7) was 17% and the inhibition at 63 g/ha ([7]; 2-3 leaves, Table 4) was 30%. The inhibition at 63 g/ha ([7]; 2 leaves, Table 5) was 60%, the inhibition at 63 g/ha ([7]; 2 leaves, Table 6) was 91% and the inhibition at 63 g/ha ([7]; 2 leaves, Table 7) was 27%. The inhibition at 125 g/ha ([7]; 2-3 leaves, Table 4) was 57%, the inhibition at 125 g/ha ([7]; 2 leaves, Table 5) was 100% and the inhibition at 125 g/ha ([7]; 2 leaves, Table 6) was 100%. For the same compound, the inhibition at 125 g/ha ([7]; 2 leaves, Table 7) was 75%, the inhibition at 8 g/ha ([8]; 2-4 leaves, Table 4) was 8% and the inhibition at 8 g/ha ([8]; 2 leaves, Table 1) was 36%. The inhibition at 8 g/ha ([8]; 2 leaves, Table 5) was 0%, the inhibition at 16 g/ha ([8]; 2-4 leaves, Table 4) was 26% and the inhibition at 16 g/ha ([8]; 2 leaves, Table 1) was 58%. It also gave an inhibition at 16 g/ha ([8]; 2 leaves, Table 5) of 58%, an inhibition at 31 g/ha ([8]; 2-4 leaves, Table 4) of 39% and an inhibition at 31 g/ha ([8]; 2 leaves, Table 1) of 81%. It also gave an inhibition at 31 g/ha ([8]; 2 leaves, Table 5) of 85%, an inhibition at 63 g/ha ([8]; 2-4 leaves, Table 4) of 56% and an inhibition at 63 g/ha ([8]; 2 leaves, Table 1) of 88%. For the same compound, the inhibition at 63 g/ha ([8]; 2 leaves, Table 5) was 71%, the inhibition at 125 g/ha ([8]; 2-4 leaves, Table 4) was 96% and the inhibition at 125 g/ha ([8]; 2 leaves, Table 1) was 95%. For the same compound, the inhibition at 125 g/ha ([8]; 2 leaves, Table 5) was 99%, the ED₉₀ ([8]; 2-4 leaves, Table 4) was “ED₉₀(g/ha) 105.79” and the ED₉₀ ([8]; 2 leaves, Table 1) was “ED₉₀(g/ha) 68.57”. For the same compound, the ED₉₀ ([8]; 2 leaves, Table 5) was “ED₉₀(g/ha) 53”, the ED₉₀ ([9]; Atrazine alone) was “ED₉₀(g/ha)76.91” and the inhibition at 8 g/ha ([9]; Sesbania, post-emergence, Atrazine 8 g/ha alone) was 21%. It also gave an inhibition at 16 g/ha ([9]; Sesbania, post-emergence, Atrazine 16 g/ha alone) of 34%, an inhibition at 31 g/ha ([9]; Sesbania, post-emergence, Atrazine 31 g/ha alone) of 68% and an inhibition at 63 g/ha ([9]; Sesbania, post-emergence, Atrazine 63 g/ha alone) of 86%. For the same compound, the inhibition at 125 g/ha ([9]; Sesbania, post-emergence, Atrazine 125 g/ha alone) was 96%, the ED₂₀ ([10]; Atrazine alone) was “ED₂₀(g/ha) ∞” and the crop phytotoxicity ([10]; Atrazine alone) was “no crop phytotoxicity”. The “% crop phytotoxicity Maize (3 leaves)” value ([10]; Atrazine 250 g/ha) was 0%, the “% crop phytotoxicity Maize (3 leaves)” value ([10]; Atrazine 500 g/ha) was 0% and the “% crop phytotoxicity Maize (3 leaves)” value ([10]; Atrazine 1000 g/ha) was 0%. For the same compound, the “% crop phytotoxicity Maize (3 leaves)” value ([10]; Atrazine 2000 g/ha) was 0%, the “% control observed” value [11] was 10% and the “% control observed” value [12] was 0%.

— patent EP0354047A2, “Herbicidal method using atrazine” (MAY & BAKER LIMITED, priority 1988, dated 1990)
